Measured values published in US4880798A, “Cephalosporin derivatives” (Mochida Pharmaceutical Co., Ltd., priority 1986, dated 1989).
In brackets after ≈: the same amount, converted by molar mass. Where two headings read alike, the source gives them in different places.

What was measured:
[1] = test system: Escherichia coli NIHJ JC 2; assay: Antibacterial activity in vitro (MIC), agar plate dilution method; assay type: cell-based; settings: NIHJJC2, Mueller Hinton agar, 10^6 cells/ml, 37° C., 20 hours
Protocol: (§1) Antibacterial activity in vitro was determined in accordance with the agar plate dilution method.
(§2) A platinum loop each of test bacteria (10^6 cells/ml), cultured in Mueller Hinton broth, was inoculated on Mueller Hinton agar plates which contained test compounds at various concentrations. After cultivating at 37° C. for 20 hours, the minimum inhibitory concentration (MIC μg/ml) was determined.

[2] = test system: Klebsiella pneumoniae IFO 3317; assay: as above; assay type: cell-based
Protocol: as §1, §2

[3] = test system: Serratia marcescens IFO 3759; assay: as above; assay type: cell-based
Protocol: as §1, §2

[4] = test system: Pseudomonas aeruginosa 34; assay: as above; assay type: cell-based
Protocol: as §1, §2

[5] = test system: Klebsiella pneumoniae IFO 3317; assay: Protection against systemic bacterial infection in ICR mice (ED50); assay type: in vivo; settings: IFO3317, iv, 168 h
Protocol: (§3) Protection ability against systemic bacterial infection was determined as follows. An aqueous suspension of test bacteria was intraperitoneally injected into 10 four week old ICR mice. One hour after the infection, test compounds were intravenously administered. The number of surviving mice was counted 1 week after injection to determine the dose at which 50% of the test animals were alive (ED50 : mg/kg).

[6] = test system: Enterobacter 8; assay: as above; assay type: in vivo; settings: 168 h
Protocol: as §3

[7] = test system: Serratia marcescens 274; assay: as above; assay type: in vivo; settings: 168 h
Protocol: as §3

[8] = test system: Pseudomonas aeruginosa IFO 3445; assay: as above; assay type: in vivo; settings: IFO3445, iv, 168 h
Protocol: as §3

[9] = test system: Pseudomonas aeruginosa 34; assay: as above; assay type: in vivo; settings: 168 h
Protocol: as §3

[10] = test system: Escherichia coli 67; assay: as above; assay type: in vivo; settings: iv, 168 h, Escherichia coli 67, i.p. infection, compound i.v. one hour after infection, survival 1 week
Protocol: as §3

[11] = test system: Staphylococcus aureus 209P; assay: Antibacterial activity in vitro (MIC), agar plate dilution method; assay type: cell-based; settings: Mueller Hinton agar, 10^6 cells/ml, 37° C., 20 hours
Protocol: as §1, §2

[12] = test system: Staphylococcus aureus 58; assay: Protection against systemic bacterial infection in ICR mice (ED50); assay type: in vivo; settings: iv, 168 h, Staphylococcus aureus 58 (methicillin-resistant strain), i.p. infection, compound i.v. one hour after infection, survival 1 week
Protocol: as §3

[13] = LD50, Probit method; settings: in vivo, iv
Protocol: Next, LD50 of representative examples of the compounds of the present invention is shown in Table 3 wherein LD50 was determined in accordance with the Probit method.

[14] = test system: Staphylococcus aureus 4; assay: Protection against systemic bacterial infection in ICR mice (ED50); assay type: in vivo; settings: iv, 168 h, Staphylococcus aureus 4 (methicillin-resistant strain), i.p. infection, compound i.v. one hour after infection, survival 1 week
Protocol: as §3

[15] = IFO3317, Klebsiella pneumoniae IFO 3317, Mueller Hinton agar, 10^6 cells/ml, 37° C., 20 hours, read-out: MIC
[16] = IFO3759, Serratia marcescens IFO 3759, Mueller Hinton agar, 10^6 cells/ml, 37° C., 20 hours, read-out: MIC
[17] = Pseudomonas aeruginosa 34, Mueller Hinton agar, 10^6 cells/ml, 37° C., 20 hours, read-out: MIC
[18] = Klebsiella pneumoniae IFO 3317, i.p. infection, ICR mice, compound i.v. one hour after infection, survival 1 week, read-out: ED50
[19] = iv, Enterobacter 8, i.p. infection, ICR mice, compound i.v. one hour after infection, survival 1 week, read-out: ED50
[20] = iv, Serratia marcescens 274, i.p. infection, ICR mice, compound i.v. one hour after infection, survival 1 week, read-out: ED50
[21] = Pseudomonas aeruginosa IFO 3445, i.p. infection, ICR mice, compound i.v. one hour after infection, survival 1 week, read-out: ED50
[22] = iv, Pseudomonas aeruginosa 34, i.p. infection, ICR mice, compound i.v. one hour after infection, survival 1 week, read-out: ED50

Compound | MIC [1] | ED50 [10] | MIC [2, 15] | MIC [11] | MIC [3, 16] | ED50 [7, 20] | ED50 [12] | LD50 [13] | ED50 [14] | ED50 [9, 22] | other results
CC(C)(O/N=C(\C(=O)N[C@@H]1C(=O)N2C(C(=O)[O-])=C(C[n+]3ccccc3)CS[C@H]12)c1csc(N)n1)C(=O)O [CAZ, Ceftazidime, reference compound] | 0.2 mg/L (≈ 0.366 µM) | 2.8 mg/kg |  |  |  |  |  |  |  |  | MIC ([2]; Klebsiella pneumoniae, IFO3317, 20 h): < 0.05 mg/L; MIC ([3]; Serratia marcescens, IFO3759, 20 h): < 0.05 mg/L; MIC ([4]; Pseudomonas aeruginosa, 34, 20 h): 3.13 mg/L (≈ 5.73 µM); ED50 ([5]; Klebsiella pneumoniae): 1.73 mg/kg; ED50 ([6]; Enterobacter, 8, iv): 4.36 mg/kg; ED50 ([7]; Serratia marcescens, 274, iv): 3.62 mg/kg; ED50 ([8]; Pseudomonas aeruginosa): 230 mg/kg; ED50 ([9]; Pseudomonas aeruginosa, 34, iv): 123 mg/kg
Cc1cc(SCC2=C(C(=O)O)N3C(=O)[C@@H](NC(=O)/C(=N\OCc4c(C(=O)O)ccc(O)c4O)c4csc(N)n4)[C@H]3SC2)n2nc(C(=O)O)nc2n1 [Compound 1, (6R,7R)-7-[2-(2-amino-4-thiazolyl)-2-[Z-[(6-carboxy-2,3-dihydroxyphenyl)methyl]oxyimino]acetamido]-3-[(2-carboxy-5-methyl-s-triazolo[1,5-a]pyrimidin-7-yl)thiomethyl]-8-oxo-5-thia-1-azabicyclo[4.2.0]oct-2-ene-2-carboxylic acid] | 0.78 mg/L (≈ 1.03 µM) | 1.59 mg/kg | < 0.05 mg/L | 6.25 mg/L (≈ 8.25 µM) | 0.39 mg/L (≈ 0.515 µM) | 0.5 mg/kg | 15.9 mg/kg | > 4000 mg/kg |  |  | MIC [4, 17]: 0.2 mg/L (≈ 0.264 µM); ED50 [5, 18]: 0.55 mg/kg; ED50 [6, 19]: 1.28 mg/kg; ED50 [8, 21]: 52 mg/kg
Cc1cc(SCC2=C(C(=O)O)N3C(=O)[C@@H](NC(=O)/C(=N\OCc4cc(C(=O)O)cc(O)c4O)c4csc(N)n4)[C@H]3SC2)n2nc(C(=O)O)nc2n1 [Compound 2, (6R,7R)-7-[2-(2-amino-4-thiazolyl)-2-[Z-[(5-carboxy-2,3-dihydroxyphenyl)methyl]oxyimino]acetamido]-3-[(2-carboxy-5-methyl-s-triazolo[1,5-a]pyrimidin-7-yl)thiomethyl]-8-oxo-5-thia-1-azabicyclo[4.2.0]oct-2-ene-2-carboxylic acid] | 0.39 mg/L (≈ 0.515 µM) | 1.1 mg/kg | 0.05 mg/L (≈ 0.066 µM) | 6.25 mg/L (≈ 8.25 µM) | 0.1 mg/L (≈ 0.132 µM) | 0.55 mg/kg | 9.65 mg/kg | > 4000 mg/kg |  |  | MIC [4, 17]: 0.2 mg/L (≈ 0.264 µM); ED50 [5, 18]: 0.34 mg/kg; ED50 [6, 19]: 1.31 mg/kg; ED50 [8, 21]: 33.7 mg/kg
Cc1cc(SCC2=C(C(=O)O)N3C(=O)[C@@H](NC(=O)/C(=N\OCc4ccc(O)c(O)c4C(=O)O)c4csc(N)n4)[C@H]3SC2)n2nc(C(=O)O)nc2n1 [Compound 4, (6R,7R)-7-[2-(2-amino-4-thiazolyl)-2-[Z-[(2-carboxy-3,4-dihydroxyphenyl)methyl]oxyimino]acetamido]-3-[(2-carboxy-5-methyl-s-triazolo[1,5-a]pyrimidin-7-yl)thiomethyl]-8-oxo-5-thia-1-azabicyclo[4.2.0]oct-2-ene-2-carboxylic acid] | 0.39 mg/L (≈ 0.515 µM) |  | 0.05 mg/L (≈ 0.066 µM) | 3.13 mg/L (≈ 4.13 µM) | 0.39 mg/L (≈ 0.515 µM) | 0.97 mg/kg |  | > 4000 mg/kg | 3.35 mg/kg | 50.6 mg/kg | 
Cn1nnnc1SCC1=C(C(=O)O)N2C(=O)[C@@H](NC(=O)[C@H](O)c3ccccc3)[C@H]2SC1 [CMD, Cefamandole, reference compound] |  |  |  |  |  |  | 18.9 mg/kg |  | 5.94 mg/kg |  | 
Cc1cc(SCC2=C(C(=O)O)N3C(=O)[C@@H](NC(=O)/C(=N\OCc4ccc(C(=O)O)c(O)c4O)c4csc(N)n4)[C@H]3SC2)n2nc(C(=O)O)nc2n1 [Compound 5, (6R,7R)-7-[2-(2-amino-4-thiazolyl)-2-[Z-[(4-carboxy-2,3-dihydroxyphenyl)methyl]oxyimino]acetamido]-3-[(2-carboxy-5-methyl-s-triazolo[1,5-a]pyrimidin-7-yl)thiomethyl]-8-oxo-5-thia-1-azabicyclo[4.2.0]oct-2-ene-2-carboxylic acid] | 0.78 mg/L (≈ 1.03 µM) |  | 0.05 mg/L (≈ 0.066 µM) | 3.13 mg/L (≈ 4.13 µM) | 0.78 mg/L (≈ 1.03 µM) | 0.75 mg/kg |  | > 4000 mg/kg | 4.21 mg/kg | 81.2 mg/kg | 
Cc1cc(SCC2=C(C(=O)O)N3C(=O)[C@@H](NC(=O)/C(=N\OCc4cc(O)c(O)c(C(=O)O)c4)c4csc(N)n4)[C@H]3SC2)n2nc(C(=O)O)nc2n1 [Compound 3, (6R,7R)-7-[2-(2-amino-4-thiazolyl)-2-[Z-[(3-carboxy-4,5-dihydroxyphenyl)methyl]oxyimino]acetamido]-3-[(2-carboxy-5-methyl-s-triazolo[1,5-a]pyrimidin-7-yl)thiomethyl]-8-oxo-5-thia-1-azabicyclo[4.2.0]oct-2-ene-2-carboxylic acid] | 0.78 mg/L (≈ 1.03 µM) |  | 0.1 mg/L (≈ 0.132 µM) | 6.25 mg/L (≈ 8.25 µM) | 0.78 mg/L (≈ 1.03 µM) | 0.72 mg/kg |  | > 4000 mg/kg | 2.08 mg/kg | 46.8 mg/kg | 
